The results in this text go back to the SangsterLogP compilation.

A word on the logP: it is the decadic logarithm of the partition coefficient of the neutral form, usually between octanol and water. Lower therefore signals a more hydrophilic compound.

Turning to `O=C(O)COc1nc(Cl)c(Cl)cc1Cl`, the logP amounted to 2.09.

The compound `Brc1c(Br)c(Br)c(Br)c(Br)c1Br` displayed a logP of 6.51.

For the compound `ClC=C(c1ccc(Cl)cc1)c1ccc(Cl)cc1`, the logP was found to be 5.27.

The compound `CC(C)OC(=O)[C@H](C)N(C(=O)c1ccccc1)c1ccc(F)c(Cl)c1` (racemic) showed a logP of 4.41.

Regarding `CCN(CC)C(=O)C(Cl)=C(C)OP(=O)(OC)OC`, the logP came to 1.34.

Regarding `COC(=O)C(C)N(C(=O)c1ccccc1)c1ccc(F)c(Cl)c1` (racemic), the logP turned out to be 3.48.

On to `COP(=S)(OC)Oc1ccc(S(=O)(=O)N(C)C)cc1`, for which the log partition coefficient (logP) is 2.28.

Compound `Clc1ccc(-c2cc(Cl)ccc2Cl)cc1` came in with a logP of 5.56.

Consider `CCOC(=O)C(C)N(C(=O)c1ccccc1)c1ccc(Cl)c(Cl)c1` (racemic), for which the logP is 4.57.

Compound `COc1c(Cl)ccc(Cl)c1C(=O)O` displayed a logP of 3.01.

Regarding `Cc1nc(C)c(Cl)c(O)c1Cl`, the logP worked out at 0.5.

For `COc1cc(Cl)c(OC)cc1Cl`, the logP was determined as 3.46.

In turn, `CC(C)Oc1cc(-n2nc(C(C)(C)C)oc2=O)c(Cl)cc1Cl` registered a logP of 4.09.

Turning to `C=C1C(CCl)(CCl)C2(Cl)C(Cl)C(Cl)C1(Cl)C2(Cl)Cl` (mixture of isomers), the logP turned out to be 5.5.
